Results from ChEMBL document CHEMBL3867477 (Bioorg Med Chem Lett, 2016).
≈ marks a conversion by molar mass, not a printed value.

What was measured:
[1] = Oral bioavailability in rat at 10 mg/kg; type: ADME, organism-based; details: in vivo
[2] = Displacement of (2S)-N-(2-phenylphenyl)-1-[2-[1-(tritritiomethyl)benzimidazol-2-yl]sulfanylacetyl]pyrrolidine-2-carboxamide from human OX1 receptor Ile408-Val mutant expressed on CHO cell membrane measured after 3 hrs by TopCount method; type: cell membranes
[3] = Clearance in rat at 2 mg/kg, iv; type: ADME, organism-based; details: in vivo
[4] = system: CHO; experiment: Selectivity index, ratio of Ki for human OX2 receptor expressed on CHO cell membrane to Ki for Ile408-Val variant human OX1 receptor expressed on CHO cell membrane; type: cell-based
[5] = Intrinsic clearance in rat liver microsomes; type: ADME; details: read-out: CLH
[6] = biological target: T1, Orexin receptor type 2 (Homo sapiens, UniProt O43614); experiment: Displacement of (2S)-N-(2-pyrrol-1-ylphenyl)-1-[2-[1-(tritritiomethyl)benzimidazol-2-yl]sulfanylacetyl]pyrrolidine-2-carboxamide from human OX2 receptor expressed on CHO cell membrane measured after 3 hrs by TopCount method; type: cell membranes
T1 sequence (O43614 whole entry): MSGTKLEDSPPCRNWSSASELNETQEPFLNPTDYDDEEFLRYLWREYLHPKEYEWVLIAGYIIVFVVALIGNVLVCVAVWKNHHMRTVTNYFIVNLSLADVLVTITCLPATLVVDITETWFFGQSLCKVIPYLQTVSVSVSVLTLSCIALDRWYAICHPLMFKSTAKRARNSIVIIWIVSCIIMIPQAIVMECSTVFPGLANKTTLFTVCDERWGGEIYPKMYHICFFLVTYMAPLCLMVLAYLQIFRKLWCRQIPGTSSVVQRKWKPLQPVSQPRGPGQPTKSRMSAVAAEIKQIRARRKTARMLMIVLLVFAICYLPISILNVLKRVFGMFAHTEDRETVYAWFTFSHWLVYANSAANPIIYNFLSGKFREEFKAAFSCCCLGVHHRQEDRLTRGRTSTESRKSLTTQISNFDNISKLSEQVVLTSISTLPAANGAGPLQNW

[7] = Aqueous solubility of the compound at pH 7; type: physicochemical; details: aqueous medium
[8] = biological target: Voltage-dependent L-type calcium channel subunit alpha-1C (Homo sapiens, UniProt Q13936); experiment: Inhibition of Cav1.2 (unknown origin)
Voltage-dependent L-type calcium channel subunit alpha-1C, sequence (Q13936 whole entry): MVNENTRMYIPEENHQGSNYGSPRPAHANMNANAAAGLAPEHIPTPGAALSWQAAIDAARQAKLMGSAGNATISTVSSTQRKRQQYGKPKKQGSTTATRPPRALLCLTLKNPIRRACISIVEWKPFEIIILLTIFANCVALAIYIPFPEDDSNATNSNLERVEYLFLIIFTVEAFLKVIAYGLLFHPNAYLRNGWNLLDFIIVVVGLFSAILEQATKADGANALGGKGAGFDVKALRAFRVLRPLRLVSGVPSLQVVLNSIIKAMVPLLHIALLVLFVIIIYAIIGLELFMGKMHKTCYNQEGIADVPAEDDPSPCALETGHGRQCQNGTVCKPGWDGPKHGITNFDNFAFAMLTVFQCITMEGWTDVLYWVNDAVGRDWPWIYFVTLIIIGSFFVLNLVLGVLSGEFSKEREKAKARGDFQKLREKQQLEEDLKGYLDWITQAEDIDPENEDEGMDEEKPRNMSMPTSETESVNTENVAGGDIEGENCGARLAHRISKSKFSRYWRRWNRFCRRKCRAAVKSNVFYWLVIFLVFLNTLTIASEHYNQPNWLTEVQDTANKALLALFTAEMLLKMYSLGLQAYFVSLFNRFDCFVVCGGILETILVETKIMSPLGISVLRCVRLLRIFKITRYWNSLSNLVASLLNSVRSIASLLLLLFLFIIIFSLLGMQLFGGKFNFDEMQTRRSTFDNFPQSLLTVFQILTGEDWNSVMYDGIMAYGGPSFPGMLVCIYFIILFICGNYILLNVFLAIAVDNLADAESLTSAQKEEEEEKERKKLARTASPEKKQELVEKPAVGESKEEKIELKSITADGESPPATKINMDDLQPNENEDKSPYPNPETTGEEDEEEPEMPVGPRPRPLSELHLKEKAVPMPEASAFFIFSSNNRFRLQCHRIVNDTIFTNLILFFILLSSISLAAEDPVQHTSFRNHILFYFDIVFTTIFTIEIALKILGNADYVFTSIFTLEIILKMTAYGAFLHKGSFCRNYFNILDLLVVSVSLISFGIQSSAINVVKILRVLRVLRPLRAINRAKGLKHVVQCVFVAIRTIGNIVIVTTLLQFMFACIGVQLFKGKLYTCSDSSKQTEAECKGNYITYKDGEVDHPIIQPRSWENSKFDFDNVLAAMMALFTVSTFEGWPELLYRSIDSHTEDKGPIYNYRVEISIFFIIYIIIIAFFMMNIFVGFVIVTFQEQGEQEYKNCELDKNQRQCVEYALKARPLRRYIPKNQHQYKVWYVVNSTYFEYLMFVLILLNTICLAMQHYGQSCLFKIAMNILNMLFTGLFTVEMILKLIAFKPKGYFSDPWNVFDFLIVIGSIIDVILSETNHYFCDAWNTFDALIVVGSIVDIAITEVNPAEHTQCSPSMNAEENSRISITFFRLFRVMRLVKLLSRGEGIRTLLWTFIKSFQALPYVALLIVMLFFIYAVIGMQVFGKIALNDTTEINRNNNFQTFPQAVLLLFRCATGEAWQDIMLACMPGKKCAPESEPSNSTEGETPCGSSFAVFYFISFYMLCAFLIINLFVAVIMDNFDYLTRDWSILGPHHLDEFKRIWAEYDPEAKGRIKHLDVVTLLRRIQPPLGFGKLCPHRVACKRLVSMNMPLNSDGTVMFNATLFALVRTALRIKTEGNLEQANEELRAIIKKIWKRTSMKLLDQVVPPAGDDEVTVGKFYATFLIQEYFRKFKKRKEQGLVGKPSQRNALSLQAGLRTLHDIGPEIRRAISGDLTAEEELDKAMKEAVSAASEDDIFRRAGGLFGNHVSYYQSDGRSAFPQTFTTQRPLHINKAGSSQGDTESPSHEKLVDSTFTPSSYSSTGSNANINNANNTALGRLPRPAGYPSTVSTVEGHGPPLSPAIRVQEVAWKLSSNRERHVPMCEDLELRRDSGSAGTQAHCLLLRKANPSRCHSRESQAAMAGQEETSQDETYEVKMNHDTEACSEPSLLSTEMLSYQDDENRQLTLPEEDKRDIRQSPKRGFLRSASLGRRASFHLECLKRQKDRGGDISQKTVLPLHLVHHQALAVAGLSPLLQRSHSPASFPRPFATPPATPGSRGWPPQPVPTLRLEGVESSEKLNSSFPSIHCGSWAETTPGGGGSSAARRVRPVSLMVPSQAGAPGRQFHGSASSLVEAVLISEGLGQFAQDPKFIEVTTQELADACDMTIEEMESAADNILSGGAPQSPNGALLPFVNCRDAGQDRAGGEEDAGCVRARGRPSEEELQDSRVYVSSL

[9] = biological target: Sodium channel protein type 5 subunit alpha (Homo sapiens, UniProt Q14524); experiment: Inhibition of Nav1.5 (unknown origin)
[10] = Aqueous solubility of the compound at pH 2; type: physicochemical; details: aqueous medium
[11] = biological target: Cytochrome P450 2C9 (Homo sapiens, UniProt P11712); experiment: Inhibition of CYP2C9 (unknown origin); type: ADME
Cytochrome P450 2C9, sequence (P11712 whole entry): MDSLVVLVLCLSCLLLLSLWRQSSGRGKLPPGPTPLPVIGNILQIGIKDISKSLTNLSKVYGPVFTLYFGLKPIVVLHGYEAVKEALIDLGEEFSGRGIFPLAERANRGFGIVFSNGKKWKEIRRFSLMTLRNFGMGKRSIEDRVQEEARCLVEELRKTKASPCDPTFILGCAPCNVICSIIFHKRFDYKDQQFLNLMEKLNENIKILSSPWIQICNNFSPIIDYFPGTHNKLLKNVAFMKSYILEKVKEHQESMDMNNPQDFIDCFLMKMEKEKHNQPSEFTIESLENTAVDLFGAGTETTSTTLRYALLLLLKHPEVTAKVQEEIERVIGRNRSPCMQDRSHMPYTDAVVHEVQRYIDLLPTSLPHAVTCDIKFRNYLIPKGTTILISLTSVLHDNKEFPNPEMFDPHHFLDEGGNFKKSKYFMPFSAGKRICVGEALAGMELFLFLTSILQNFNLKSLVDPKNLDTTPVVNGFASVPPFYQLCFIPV

[12] = biological target: Cytochrome P450 3A4 (Homo sapiens, UniProt P08684); experiment: Inhibition of CYP3A4 (unknown origin); type: ADME
Cytochrome P450 3A4, sequence (P08684 whole entry): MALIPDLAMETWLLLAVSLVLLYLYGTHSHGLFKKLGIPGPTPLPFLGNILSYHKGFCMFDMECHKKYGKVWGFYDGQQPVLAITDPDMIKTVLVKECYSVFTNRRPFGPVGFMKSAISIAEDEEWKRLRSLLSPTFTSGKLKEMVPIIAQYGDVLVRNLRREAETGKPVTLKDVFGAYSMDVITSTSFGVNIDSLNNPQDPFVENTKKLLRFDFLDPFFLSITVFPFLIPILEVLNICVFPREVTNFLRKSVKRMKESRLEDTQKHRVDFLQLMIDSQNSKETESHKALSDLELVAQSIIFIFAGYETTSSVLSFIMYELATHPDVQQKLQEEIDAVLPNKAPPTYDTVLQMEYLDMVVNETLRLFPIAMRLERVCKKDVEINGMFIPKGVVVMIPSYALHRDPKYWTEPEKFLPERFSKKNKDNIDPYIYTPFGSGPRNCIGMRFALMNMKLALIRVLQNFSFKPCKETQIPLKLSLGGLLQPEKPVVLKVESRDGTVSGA

[13] = Solubility of the compound; type: physicochemical

| Compound | bioavailability [1] [%] | Ki [2] [nM] | clearance [3] [mL/min/kg] | Ratio Ki [4] | CLint scaled [5] [mL/min/kg] | Ki [6] [nM] | solubility [7] [µM] | inhibition (INH) [8] | inhibition (INH) [9] | solubility [10] [µM] | inhibition (INH) [11] | inhibition (INH) [12] | solubility [13] |
| --- | --- | --- | --- | --- | --- | --- | --- | --- | --- | --- | --- | --- | --- |
| O=C(c1cccc2[nH]cnc12)N1CCC(F)(F)[C@@H](Oc2ccc3ccccc3n2)C1 | 10 | 3.8 | 69 | 371 | 829 | 1410 |  |  |  |  |  |  |  |
| O=C(c1cccc2[nH]ccc12)N1CCC(F)(F)[C@@H](Oc2ccc3ccccc3n2)C1 |  | 0.5 |  | 240 |  | 120 | 13 (≈ 5.3 µg/mL) |  |  |  |  |  |  |
| O=C(c1ccnc2[nH]ccc12)N1CCC(F)(F)[C@@H](Oc2ccc3ccccc3n2)C1 |  | 2.5 |  | 626 |  | 1560 | > 150 | Active | Active | > 150 |  |  |  |
| O=C(c1cccc2[nH]ncc12)N1CCC(F)(F)[C@@H](Oc2ccc3ccccc3n2)C1 |  | 2.6 | 87.5 | > 744 | 761 | > 1930 |  |  |  |  |  |  |  |
| O=C(c1nccc2[nH]ccc12)N1CCC(F)(F)[C@@H](Oc2ccc3ccccc3n2)C1 |  | 1.6 |  | 325 |  | 521 | > 150 | Active | Active | > 150 |  |  |  |
| COc1ccccc1C(=O)N1CCC(F)(F)C(Oc2ccc3ccccc3n2)C1 (racemic) |  | 24 |  | > 110 |  | > 2630 |  | Active |  |  | Active | Active | Insoluble |
| Cc1ccccc1C(=O)N1CCC(F)(F)C(Oc2ccc3ccccc3n2)C1 (racemic) |  | 52 |  | > 51 |  | > 2630 |  | Active |  |  | Active | Active | Insoluble |
| O=C(c1ccccc1-n1nccn1)N1CCC(F)(F)C(Oc2nccc3ccccc23)C1 (centres undefined) |  | 6.5 |  | 0.43 |  | 2.8 |  | Active |  |  | Active | Active | Insoluble |
| O=C(c1ccccc1F)N1CCC(F)(F)C(Oc2ccc3ccccc3n2)C1 (racemic) |  | 23 |  | > 77 |  | > 1770 |  | Active |  |  | Active | Active | Insoluble |
| O=C(c1ccccc1-n1nccn1)N1CCC(F)(F)C(Oc2nc3ccccc3o2)C1 (centres undefined) |  | 49 |  | 9.5 |  | 467 |  | Active |  |  | Active | Active | Insoluble |
